Data: patent US20110212100A1, “METHODS FOR MODULATING DEVELOPMENT AND EXPANSION OF IL-17 EXPRESSING CELLS” (priority 2007, published 2011)
“And” between values parts separate entries of the source, which are not always exact repeats. Equal values may be shown once. Read-outs that look alike come from different tables or passages of the source.

Legend:
primary T cells = assay type: cell-based
Method: The non-specific cytoxicity of HF in both normal and transformed T-cells at high doses was evaluated. Anti-CD3/anti-CD28 activated primary T cells were harvested 6 days after activation and cultured in the presence of IL-2 with or without HF (100 nM). As a positive control, some T cells were cultured without IL-2 to induce apoptosis (FIG. 3A). Jurkat T cells, a transformed T cell leukemia line, were cultured in complete medium with or without HF (100 nM) as indicated (FIG. 3B). Both primary and Jurkat T cells were cultured for 30 hours and programmed cell death, i.e. apoptosis, was determined by Annexin V staining and propidium iodide (PI) uptake and cells were analyzed by flow cytometry. The percent of apoptotic T cells at each time point was plotted and was defined as Annexin V^+ PI^−. […] In further experiments, titrating amounts of HF were added to primary T cells and apoptosis was determine as above at the indicated time points. At 100 nM HF, but not 30 nM or lower, generalized T-cell apoptosis was observed (FIG. 3C).

SV-MES mesangial cells = assay: Stress response in fibroblasts (eIF2α western blot); assay type: cell-based; details: 20 nM HF, 2 hours
Method: SV-MES mesangial cells were stimulated for 2 hours with DMSO, 20 nM MAZ1310 or 20 nM HF. Whole cell lysates were analyzed for expression of phosphorylated or total eIF2α or GCN2 by western blotting.
Western blotting: Whole cell lysates were generated from T cells activated for the indicated times. For STAT3 and Smad2/3 western blots cells were harvested, washed in PBS and lysed in 50 mM Tris, pH 7.4, 0.1% SDS, 1% Triton-X100, 140 mM NaCl, 1 mM EDTA, 1 mM EGTA supplemented with protease inhibitors tablets (Roche-Germany), 1 mM NaF and 1 mM Na3VO4. For eIF2α and ATF4 western blots, cells were harvested as above and lysed in 50 mM Tris, pH 7.4, 2% SDS, 20% glycerol and 2 mM EDTA supplemented with protease and phosphatase inhibitors as above. All lysates were cleared via centrifugation and 15-30 μg of protein was resolved by SDS-PAGE. Protein was transferred to nitrocellulose membranes, blocked and blotted using specific antibodies. Antibodies used for western blot analysis were anti-phospho-Smad2, anti-STAT3 (pY705), anti-STAT3, anti-eIF2α^pS51, anti-eIF2α, anti-GCN2^pT898, anti-GCN2 (all from cell signaling technology, Danvers, Mass.). Anti-ATF4/CREB2 and anti-β-actin were purchased from Santa Cruz biotechnology (Santa Cruz, Calif.). […]

[1] = cited from earlier work
[2] = tested on: Xenopus feeding stage tadpoles; assay: Toxicity in Xenopus feeding stage tadpoles; assay type: in vivo; details: 400 nM HF, 7 days
Method: At concentrations over 80 nM, HF has a variety of non-specific effects on both T-cells and fibroblasts. […] At the recommended tolerated dose for chronic treatment (0.5 mg/day), plasma levels of HF were ˜0.5 ng/ml (1 nM). (de.Jonge et al., Eur J Cancer, vol. 42(12):1768-74 (2006)).

[3] = tested on: B220+ B cells and CD8+ T cells; assay: B cell and CD8+ T cell proliferation and function; assay type: cell-based, mouse
Method: The non-specific effects of HF on B and CD8+ T cells were evaluated. B220+ B cells or CD8+ T cells were isolated from the spleen and peripheral lymph nodes of C57B/6 mice. B cell proliferation and IL-6 production was induced by culturing the cells with LPS (0.5 μg/ml) for 4 days. The effects of HF on B cell function was determined by adding titrating amounts of HF (1.25 nM-40 nM) at the time of LPS stimulation. B cell proliferation was monitored by labeling cells with Carboxyfluorescein diacetate, succinimidyl ester (CFSE; 5 μM) prior to LPS stimulation and determining the rate of CFSE dilution after 4 days by flow cytometric analyses. LPS-induced IL-6 production by B cells was determined by intracellular staining on day 4, following PMA+Ionomycin+Brefeldin A re-stimulation as described above. For CD8+ T cell experiments, purified CD8+ T cells were labeled with CFSE as above and the T cells were activated using anti-CD3 (1 μg/ml) and anti-CD28 (1 μg/ml) antibodies. […] CD8+ T cell proliferation was determined by monitoring CFSE dilution on day 3-post activation; CD25 expression was determined by FACS staining on day 2 of culture; differentiation of CD8+ T cells into cytolytic T cells (CTL) was evaluated on day 4 by determining expression of IFNγ and granzyme B following PMA+Ionomycin+Brefeldin A re-stimulation. […]

[4] = human, in vivo; cited from earlier work

O=C(CC1NCCCC1O)Cn1cnc2cc(Br)c(Cl)cc2c1=O (racemic) [HF, 7-bromo-6-chloro-3-[3-(3-hydroxy-2-piperidinyl)-2-oxopropyl]-4(3H)-quinazolinone]
concentration at which generalized T-cell apoptosis was not observed (primary T cells): ≤ 0.03 µM | concentration at which generalized T-cell apoptosis was observed (primary T cells): 0.1 µM | eIF2α phosphorylation in SV-MES mesangial cells, in words (SV-MES mesangial cells): increased eIF2α phosphorylation | peak plasma concentration ([1]; oral 3.5 mg/day): 3 ng/ml and ~8 nM | dose at which dose limiting toxicity occurred ([1]; oral (de Jonge et al.)): 3.5 mg/day | dose limiting toxicity, in words ([1]; oral): nausea and vomiting | recommended tolerated dose for chronic treatment ([1]; oral): 0.5 mg/day | dose limiting toxicity, in words ([1]; oral, listed as halofuginone): nausea | toxic effects in tadpoles, in words [2]: does not have detectable toxic effects | dose at which B and CD8+ T cells were profoundly impaired in proliferation and function [3]: greater than 20 nM | effect on B and CD8+ T cell function or proliferation, in words ([3]; doses lower than 10 nM): little or no effect | HF in serum during topical treatment, in words [4]: undetectable in serum
